We go through eight compounds from article PMC6054100, “Exploring the chemical space of the lysine-binding pocket of the first kringle domain of hepatocyte growth factor/scatter factor (HGF/SF) yields a new class of inhibitors of HGF/SF-MET binding” (Chemical Science, 2015).

For test [1], the system named is MET downstream signalling (Erk 1/2, Akt) in Vero cells. The experiment in a line: MET, Erk1/2 and Akt phosphorylation assay in NK1-stimulated Vero cells (Western blot). The note with it: Vero cells stimulated with NK1. It is filed as cell-based. The protocol:
We evaluated the effect of piperazine-like compounds and MB605 on Vero cells by assessing MET, Erk 1/2 and Akt phosphorylation in response to stimulation using […] NK1. MB605 was dissolved in DMSO, which limited the range of concentrations tested to ≤1 mM in order to avoid solvent effects on cell function/viability. The water-soluble piperazine-like compounds, in contrast, could be tested at concentrations up to 100 mM.
Fig. 6 Biological activity of the piperazine-like compounds and MB605. (a–e) Vero cells expressing the receptor endogenously on their cell surface were stimulated with HGF/SF or NK1 and phosphorylation of MET and downstream targets Akt and Erk1/2 was analysed. Piperazine-like compounds HEPES (a), (H)EPPS (b), MES (c), MOPS (d) and CAPS (e) were tested at 100 mM (lanes 4), 10 mM (lanes 5), 1 mM (lanes 6) and 100 μM (lanes 7) concentration in the presence of 1 nM NK1. To control for activating or inhibiting effects of the compounds independently of MET, piperazine-like compounds were tested on cells at 100 mM without stimulation by NK1 (lanes 3). Biological activity of MB605 (f) was investigated at 1 mM (lane 5), 100 μM (lane 6) and 10 μM (lane 7) in the presence of a constant concentration of DMSO (0.1%). A solvent control (0.1% DMSO, lane 3) was included in order to account for the effect of DMSO on the cells. A positive control (1 nM NK1 in the presence of 0.1% DMSO) is shown in lane 4. In all experiments, un-stimulated cells served as negative control (lanes 1) while cells stimulated with 1 nM NK1 served as positive control (lanes 2).
The ability of MB605 and the piperazine-like compounds to inhibit MET, Erk and Akt phosphorylation in the presence of NK1 was tested using mammalian Vero cells as described by Ferraris et al.[47] and further details are given in the ESI ^† section of the manuscript. […]
For MET, Erk1/2 and Akt phosphorylation assays, Vero cells were seeded at 2.1 × 10^5 cells we ll -1 (2 ml we ll -1) in 6-well plates and grown to 90% conf luence in 10% FCS/DMEM media and then switched to serum-free medium (to avoid any growth f actors present in the serum).
24 hours post starvation the cells were stimulated for 5 min at 37°C with each individual piperazine -like compounds as well as with NK1 (1 nM) pre-incubated with different concentrations of the piperazine- like compounds (100 mM, 10 mM, 1 mM and 100 μM) or MB605 (1 mM, 100 μM and 10 μM). Stimulations with either 0. 1% DMS O or 1 nM of NK1 […]
solution were used as a negative and a positive control, respectively. The cells were then washed in PBS buffer, lysed on ice f or 30 min and frozen at -80 °C until further analysis. For
For orientation: A western blot detects proteins with antibodies after separation by electrophoresis.

The target in test [2] is T1, lysine-binding pocket of the kringle domain of NK1 (Homo sapiens, UniProt P14210).
T1 construct: made in house; host or cells: Pichia pastoris
Briefly: Soaking into NK1 apo crystals, X-ray crystallography. Particulars: soaked into NK1 apo crystals. The protocol: Next, three classes of piperazine-like sulphonated compounds containing piperazine ((H)EPPS and PIPES), morpholine (MES and MOPS), or cyclohexane (CHES and CAPS) rings were studied for their binding to NK1 (Table 1), alongside another five sulphonated compounds selected from a chemical fragment library (Table 2).
NK1 buffered in 150 mM NaCl, 50 mM Tris, pH 7.5 (apo-NK1 and all soaking experiments) was concentrated to ∼20 mg mL^–1 using a Vivaspin device with a 10 kDa cut-off membrane (Sartorius Biolab). Crystallisation was carried out in Linbro plates by the vapour diffusion hanging drop technique using a protein : precipitant ratio of 1 : 1 at 20 °C. Previously NK1 has been crystallised in 18% PEG 4000, 200 mM sodium acetate and 150 mM Tris pH 8.5 as precipitant.[19] Here final crystallisation conditions (19% PEG 4000, 200 mM sodium acetate and 150 mM Tris pH 7.5) were optimised around those to achieve high-resolution apo structure. Details of compound soaking, X-ray data collection and structure determination are given in the ESI ^† section of the manuscript. […]
For this, 1 M stock solutions were prepared in DMSO (fragments) or water (piperazine- like compounds) and the pH adjusted to a value within their buffering range with either HCl or NaOH. The seven piperazine- like compounds and their respective pH are: HEPES (pH 7.6), (H)EPPS (pH 7.4), PIPES (pH 7.0), MES (pH 5.8), MOPS (pH 7.2), CHES (pH 8.6) and CAPS (pH 9.7). Secondary stocks of the compounds at 50 mM were prepared in the […]
respective mother liquor and soaked for up to 48 hours.
MB605 was solubilised in 50% DMSO at 20 mM concentration (1% f inal DMSO concentration in the drop) in order to minimize adverse effects of DMSO on the protein crystal. 25% ethylene glycol was used as the cryoprotective agent.
X-ray data collection and processing
X-ray datasets were collected either at the European Synchrotron Radiation Facility (ESRF, Grenoble, France), the Diamond Light Source (DLS, Oxford, UK) or in-house using the X8 PROTEUM (Bruker AXS) at the Department of Biochemistry, University of Cambridge.
Datasets of at least 180° were collected. Raw data collected at synchrotrons were integrated, merged, scaled and reduced using DENZO and […].2 Raw data […]
collected in- house were integrated, merged, scaled and reduced using the PROTEUM 2 software package .3 The CCP4 suite of crystallographic programs (Collaborative

In test [3] the target is T2, NK1 (Homo sapiens, UniProt P14210). Briefly: SPR steady-state binding to immobilized NK1 (Biacore T100). Details: made in house; host or cells: Pichia pastoris. Particulars: steady-state binding constants; piperazine-like compounds; immobilized NK1, PBS pH 7.4; read-out: KD in SPR. The procedure: Binding constants of piperazine-like compounds and fragments were determined using a Biacore T100 instrument. NK1 was immobilized on a CM5 chip by amine coupling to a density of 6000 RU. Compounds were stored as 100 mM stock solutions in water and serial dilutions were prepared in the running buffer (PBS pH 7.4, 0.05% Tween 20). The compound solutions were injected onto the surface of the chip at a flow rate of 30 μL min^–1, contact time was 1 min and dissociation time 1 min. Sensorgrams were analysed using the Biacore T100 evaluation software and the binding constants determined.
(In general: In SPR one partner is held on a chip, and binding of the other changes the refractive index at the surface.)

Test [4] deals with NK1-MET complexes. Details: method as in Lauris Kemp, personal communication. The note with it: buffers containing 50 mM HEPES; ref Lauris Kemp, personal communication; cited from earlier work.
In test [5] the target is T2, NK1. Briefly: 1H-15N TROSY-HSQC NMR chemical shift titration of 15N-labelled NK1. Particulars: steady-state binding constants; piperazine-like compounds; 0.18 mM NK1, pH 7.2, 310 K; read-out: KD in NMR. It is filed as binding. Details: made in house; host or cells: Pichia pastoris. The procedure: Ligand screening was performed by monitoring the chemical shift variations in ^1H-^15N TROSY-HSQC NMR spectra of the uniformly [^15N]-labelled NK1 protein (Fragai et al. 2015, in prep.) upon the addition of increasing concentrations of the investigated compounds.[43]–[45] The experiments were performed using 0.18 mM protein samples in 25 mM Tris, 100 mM NaCl and 0.01% sodium azide, at pH 7.2 with 10% D2O. The spectra were recorded at 310 K on a Bruker AVANCE 900 MHz spectrometer equipped with a TXI cryo-probe. Sample solutions were prepared from 1 M or 100 mM DMSO stock solutions of the ligands. The dissociation constant values (KD) were calculated by plotting the weighted average ^1H and ^15N chemical shifts of the residues experiencing significant variations as a function of ligand concentration added during the titration and considering the one site binding model.[46]

Test [6] addresses T2, NK1. Briefly: Binding of lysine analogues to NK1 (unpublished data). The note with it: A. G. S.

The term Kd denotes the constant that tells how readily two partners part at equilibrium.

T1 sequence (P14210 32-210 isoform P14210-6 limits assumed): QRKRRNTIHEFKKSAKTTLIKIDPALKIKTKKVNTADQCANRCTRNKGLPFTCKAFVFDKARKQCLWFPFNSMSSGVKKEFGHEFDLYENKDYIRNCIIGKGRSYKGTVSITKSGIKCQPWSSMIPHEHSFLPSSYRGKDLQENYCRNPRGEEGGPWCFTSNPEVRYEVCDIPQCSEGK
T2 sequence (P14210 32-210 isoform P14210-6 limits assumed): as above

Regarding `O=S(=O)(O)CCN1CCN(CCO)CC1` [HEPES, 4-(2-hydroxyethyl)-1-piperazineethanesulfonic acid], the “Inhibition of phosphorylation of Erk 1/2 and Akt (S473)” value (shortened to “Inhibition”) in test [1] (compound 100 mM (lanes 4)) is given as “Inhibition of phosphorylation”. The “binding in the lysine-binding pocket (crystal structure)” value (from here on “binding in the lysine-binding pocket”) in test [2] is “bound into the lysine-binding pocket”. Besides, the Kd came out at 2.4 ± 0.4 mM in test [3] and 3.3 ± 0.4 mM in test [5]. For the same compound, in test [4], the “formation of NK1-MET complexes” value was “inhibited”.
Consider `NCCCCCC(=O)O` [EACA, ε-aminocaproic acid], for which the “binding to NK1” value in test [6] was “neither EACA or AMCHA binds NK1”.
Take `O=S(=O)(O)CCCN1CCN(CCO)CC1` [(H)EPPS]: the “Inhibition” value in test [1] (compound 100 mM (lanes 4)) is recorded as “Inhibition of phosphorylation”. Further, the Kd in test [3] turned out to be 7 ± 1 mM; in test [5], 4.4 ± 1.8 mM.
With `NC[C@H]1CC[C@H](C(=O)O)CC1` [AMCHA, trans-4-(aminomethyl)cyclohexane-1-carboxylic acid], the “binding to NK1” value in test [6] is “neither EACA or AMCHA binds NK1”.
Take `O=S(=O)(O)CCN1CCOCC1` [MES]: in test [1] (compound 100 mM (lanes 4)), the “Inhibition” value is on record as “Inhibition of phosphorylation”. Besides, the “binding in the lysine-binding pocket” value in test [2] is “bind the lysine-binding pocket of NK1”. Also, the Kd in test [3] was 24.3 ± 3.1 mM; in test [5], 13.4 ± 5.7 mM.
Consider `O=S(=O)(O)CCCNC1CCCCC1` [CAPS], for which the “Inhibition” value is on record as “active” in test [1] (compound 10 mM (lane 5)) and “Inhibition of phosphorylation” in test [1] (compound 100 mM (lanes 4)). Further, in test [2], the “binding in the lysine-binding pocket” value is listed as “bind the lysine-binding pocket of NK1”. In addition, the Kd in test [3] was determined as 1.2 ± 0.2 mM; in test [5] it was 1.4 ± 0.5 mM.
For `O=S(=O)(O)CCNC1CCCCC1` [CHES], the “binding in the lysine-binding pocket” value in test [2] is given as “bind the lysine-binding pocket of NK1”. The Kd in test [3] amounted to 30.2 ± 3.1 mM; in test [5], 15.7 ± 4.5 mM.
Consider `O=S(=O)(O)CCCN1CCOCC1` [MOPS], for which the “Inhibition” value in test [1] (compound 100 mM (lanes 4)) is “Inhibition of phosphorylation”. Further, the “binding in the lysine-binding pocket” value in test [2] is given as “bind the lysine-binding pocket of NK1”. The equilibrium dissociation constant (Kd) in test [3] was 7 ± 1 mM; in test [5], 4.7 ± 1.7 mM.
